In article PMC12383718, “C-Terminal Modification Contributes the Antibacterial Activity of a Cecropin-like Region of Heteroscorpine-1 from Scorpion Venom” (Biology, 2025):
Values after ≈ are worked out from the molar mass of the structure shown. Ends that are not written are not given here.

Assays:
[1] = tested on: Escherichia coli ATCC 25922; assay: microbe, parasite or virus in culture; type: cell-based; settings: E. coli ATCC 25922, 37 °C, 16–18 h, ND = no detection at the highest tested concentration
Protocol: (§1) The following microorganisms were used to determine the minimum inhibitory concentration (MIC) and minimum bactericidal concentration (MBC) of the peptides: Gram-positive Staphylococcus aureus ATCC 25923, Gram-negative Escherichia coli ATCC 25922, Klebsiella pneumoniae ATCC 27736, and Pseudomonas aeruginosa ATCC 27853. The assays were conducted according to the protocol described by Erviana et al., with some modifications.
(§2) The antibacterial activity of the modified CeHS-1 analogs was evaluated using MIC and MBC assays. The MIC (minimum inhibitory concentration) is defined as the lowest concentration of antimicrobial peptides (AMPs) or other agents that inhibits visible bacterial growth. In contrast, the MBC (minimum bactericidal concentration) is defined as the lowest concentration of AMPs that kills 99.9% of the bacterial inoculum under the specified conditions. The determination of MIC values was performed using a 96-well plate assay. Initially, peptides were serially diluted in the wells. Then, 10 µL of bacterial inoculum, previously adjusted to a cell density of 2.2 × 10^6 CFU/mL, was added to each well. The plates were incubated at 37 °C for 16–18 h. The MIC was determined by measuring the optical density at 600 nm (OD600), with the lowest concentration of AMPs that inhibited visible bacterial growth defined as the MIC. […] The lowest concentration of AMPs at which no bacterial colonies were observed was defined as the MBC [47].

[2] = tested on: Staphylococcus aureus ATCC 25923; assay: microbe, parasite or virus in culture; type: cell-based; settings: S. aureus ATCC 25923, 37 °C, 16–18 h, ND = no detection at the highest tested concentration
Protocol: as §1, §2

[3] = tested on: Pseudomonas aeruginosa ATCC 27853; assay: microbe, parasite or virus in culture; type: cell-based; settings: P. aeruginosa ATCC 27853, 37 °C, 16–18 h, ND = no detection at the highest tested concentration
Protocol: as §1, §2

[4] = tested on: Klebsiella pneumoniae ATCC 27736; assay: microbe, parasite or virus in culture; type: cell-based; settings: K. pneumoniae ATCC 27736, 37 °C, 16–18 h, ND = no detection at the highest tested concentration
Protocol: as §1, §2

[5] = tested on: S. aureus cytoplasmic membrane; type: cell-based, Staphylococcus aureus; settings: S. aureus 10^6 CFU/mL in PBS, 0.25, 0.5 and 1 MIC, 1 h, 37 °C; flow cytometry; at least triplicate
Protocol: A bacterial suspension of S. aureus was cultured in LB medium to the exponential phase (OD600 = 0.5). […] Following incubation, 42 µL of SYTOX™ Green Ready Flow™ Reagent (Invitrogen, Thermo Fisher Scientific, Carlsbad, CA, USA) was added to the peptide-treated cells and incubated for an additional 10 min at 25 °C. Fluorescence emission was measured using flow cytometry. The cell population was gated based on forward scatter and side scatter parameters. Cells with compromised membranes were identified by their fluorescence (excitation at 488 nm and detection at 530 nm with a 30 nm bandpass filter). The mean fluorescence intensity and the percentage of fluorescent cells were determined by analyzing 100,000 cells per sample. Each experiment was performed in at least triplicate. Flow cytometry measurements were conducted using a BD FACSCanto II system (BD Biosciences, Wokingham, UK).

[6] = tested on: human red blood cells (hRBCs); assay: Hemolytic activity assay; type: cell-based; settings: 500 µg/mL peptide (highest concentration tested); 4% hRBC suspension in PBS pH 7.4, 37 °C, 1 h, absorbance 415 nm; relative to 0.1% Triton X-100
Protocol: The hemolytic activity of the peptides was assessed using human red blood cells (hRBCs), following the method described by Erviana et al., with some modifications. Briefly, a 4% hRBC suspension was prepared in 1X phosphate-buffered saline (PBS, pH 7.4). Subsequently, 100 µL of the hRBC suspension was mixed with 100 µL of peptide samples at various concentrations (500, 200, 100, 50, and 25 µg/mL) in microcentrifuge tubes. The mixture was incubated at 37 °C for 1 h, followed by centrifugation at 100× g for 5 min. The supernatant was collected and transferred to a 96-well plate for absorbance measurement at 415 nm. The hemolytic activity of each peptide was subsequently calculated using the following equation: Hemolysis (%)=S/P×100
In the above equation, S represents the absorbance at 415 nm of the sample or negative control, while P represents the absorbance at 415 nm of the positive control. The peptide solvent was used as the negative control, whereas 0.1% Triton X-100 served as the positive control.

[7] = 25 µL from wells without visible growth spread on nutrient agar
[8] = 96-well plate serial dilution, 10 µL inoculum of 2.2 × 10^6 CFU/mL, OD600

## CC1(C)S[C@@H]2[C@H](NC(=O)[C@H](N)c3ccccc3)C(=O)N2[C@H]1C(=O)O [Ampicillin, reference compound]
[1]; Escherichia coli, ATCC25922, 25 µL from wells without visible growth spread on nutrient agar
  MBC: 32 µg/mL (≈ 91.6 µM)
[1]; Escherichia coli, ATCC25922, 96-well plate serial dilution, 10 µL inoculum of 2.2 × 10^6 CFU/mL, OD600
  MIC: 4 µg/mL (≈ 11.4 µM)
[2]; Staphylococcus aureus, ATCC25923, 25 µL from wells without visible growth spread on nutrient agar
  MBC: 8 µg/mL (≈ 22.9 µM)
[2]; Staphylococcus aureus, ATCC25923, 96-well plate serial dilution, 10 µL inoculum of 2.2 × 10^6 CFU/mL, OD600
  MIC: 8 µg/mL (≈ 22.9 µM)
[3]; Pseudomonas aeruginosa, ATCC27853, 25 µL from wells without visible growth spread on nutrient agar
  MBC: 256 µg/mL (≈ 733 µM)
[3]; Pseudomonas aeruginosa, ATCC27853, 96-well plate serial dilution, 10 µL inoculum of 2.2 × 10^6 CFU/mL, OD600
  MIC: 128 µg/mL (≈ 366 µM)
[4]; Klebsiella pneumoniae, ATCC27736, 25 µL from wells without visible growth spread on nutrient agar
  MBC: > 256 µg/mL
[4]; Klebsiella pneumoniae, ATCC27736, 96-well plate serial dilution, 10 µL inoculum of 2.2 × 10^6 CFU/mL, OD600
  MIC: > 256 µg/mL

## NC[C@H]1O[C@H](O[C@H]2[C@H](O)[C@@H](O[C@H]3O[C@H](CO)[C@@H](O)[C@H](N)[C@H]3O)[C@H](N)C[C@@H]2N)[C@H](O)[C@@H](O)[C@@H]1O [kanamycin]
[5]
  Cytoplasmic membrane permeabilization (SYTOX Green fluorescence intensity): low fluorescence intensity

## GWINIIKIQKKRWW-NH2 [compound 3]
[1]; [7]
  E. coli MBC: 256 µg/mL
[1]; [8]
  E. coli MIC: 128 µg/mL
[6]
  Hemolytic activity: 7.74 ± 1.18%

## KIQKKIIKKIGRWW-NH2 [compound 6]
[1]; [7]
  E. coli MBC: 8 µg/mL
[1]; [8]
  E. coli MIC: 8 µg/mL
[2]; [7]
  S. aureus MBC: 64 µg/mL
[2]; [8]
  S. aureus MIC: 32 µg/mL
[3]; [7]
  P. aeruginosa MBC: 32 µg/mL
[3]; [8]
  P. aeruginosa MIC: 16 µg/mL
[4]; [7]
  K. pneumoniae MBC: 256 µg/mL
[4]; [8]
  K. pneumoniae MIC: 256 µg/mL
[6]
  Hemolytic activity: 2.35 ± 0.20%

## KKILGGMAKAVRWW-NH2 [compound 9]
[1]; [7]
  E. coli MBC: 32 µg/mL
[1]; [8]
  E. coli MIC: 8 µg/mL
[2]; [7]
  S. aureus MBC: 128 µg/mL
[2]; [8]
  S. aureus MIC: 64 µg/mL
[3]; [7]
  P. aeruginosa MBC: 128 µg/mL
[3]; [8]
  P. aeruginosa MIC: 64 µg/mL
[4]; [7]
  K. pneumoniae MBC: 128 µg/mL
[4]; [8]
  K. pneumoniae MIC: 128 µg/mL
[6]
  Hemolytic activity: 2.39 ± 0.22%

## VHKLAKGIFKRWW-NH2 [compound 12]
[1]; [7]
  E. coli MBC: 16 µg/mL
[1]; [8]
  E. coli MIC: 4 µg/mL
[2]; [7]
  S. aureus MBC: 32 µg/mL
[2]; [8]
  S. aureus MIC: 32 µg/mL
[3]; [7]
  P. aeruginosa MBC: 64 µg/mL
[3]; [8]
  P. aeruginosa MIC: 32 µg/mL
[4]; [7]
  K. pneumoniae MBC: 256 µg/mL
[4]; [8]
  K. pneumoniae MIC: 256 µg/mL
[6]
  Hemolytic activity: 1.67 ± 0.17%
